# Biological target: T1, recombinant human ALX receptor (Homo sapiens, UniProt P25090)
# T1 construct: expressed in transfected cells; host or cells: HEK293 (HEK293-hALXR-Gα16)
# T1 sequence (P25090 1-351): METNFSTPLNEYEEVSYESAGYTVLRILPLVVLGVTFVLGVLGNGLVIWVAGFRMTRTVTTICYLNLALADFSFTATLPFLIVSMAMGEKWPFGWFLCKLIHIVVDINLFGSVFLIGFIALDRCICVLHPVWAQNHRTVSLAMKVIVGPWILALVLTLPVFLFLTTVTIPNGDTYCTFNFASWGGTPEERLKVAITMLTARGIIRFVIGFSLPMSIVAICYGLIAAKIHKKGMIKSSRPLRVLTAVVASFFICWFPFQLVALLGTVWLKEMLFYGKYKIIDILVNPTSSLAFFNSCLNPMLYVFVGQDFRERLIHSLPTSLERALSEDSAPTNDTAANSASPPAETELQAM
# Assay: Intracellular calcium measurements (FLIPR), ALX receptor agonistic activity
# Type: cell-based
# Conditions: HEK293-hALXR-Gα16 cells, Fluo-4 calcium signal, normalized to WKYMVm 10 nM
# How it was run: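 HEK293 cells co-expressing human ALX receptor and Gα16 were loaded with 1 μM Fluo-4 AM for 60 min at 37° C., then exposed to serially diluted compounds on FLIPR Tetra. Peak fluorescence above baseline (ex 488/em 540 nm) was normalized to 10 nM WKYMVm as high control.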
row,Compound,EC50
1,"COc1ccc(C[C@@H](NC(=O)NCCc2cnccn2)c2nc3ccccc3[nH]2)cc1 [Example 285, (R)-1-(1-(1H-Benzo[d]imidazol-2-yl)-2-(4-methoxyphenyl)ethyl)-3-(2-(pyrazin-2-yl)ethyl)urea]",0.284 µM
2,"COc1ccc(C[C@@H](NC(=O)N2CC3CCC2CN3)c2nc3ccccc3[nH]2)cc1 (stereo partly drawn) [Example 122, N—((R)-1-(1H-Benzo[d]imidazol-2-yl)-2-(4-methoxyphenyl)ethyl)-2,5-diazabicyclo[2.2.2]octane-2-carboxamide]",0.059 µM
3,"COc1ccc(C[C@@H](NC(=O)N2CCCC2)c2nc3ccccc3[nH]2)cc1 [Example 91, (R)—N-(1-(1H-Benzo[d]imidazol-2-yl)-2-(4-methoxyphenyl)ethyl)pyrrolidine-1-carboxamide]",0.561 µM
4,"COc1ccc(C[C@@H](NC(=O)NCCN2CCc3ccccc32)c2nc3ccccc3[nH]2)cc1 [Example 286, (R)-1-(1-(1H-Benzo[d]imidazol-2-yl)-2-(4-methoxyphenyl)ethyl)-3-(2-(indolin-1-yl)ethyl)urea]",0.102 µM
5,"COc1ccc(C[C@@H](NC(=O)NCCc2ccc3c(c2)OCO3)c2nc3ccccc3[nH]2)cc1 [Example 299, (R)-1-(1-(1H-Benzo[d]imidazol-2-yl)-2-(4-methoxyphenyl)ethyl)-3-(2-(benzo[d][1,3]dioxol-5-yl)ethyl)urea]",0.167 µM
6,"COc1ccc(C[C@@H](NC(=O)N[C@H](C)C2CCCCC2)c2nc3ccccc3[nH]2)cc1 [Example 383, 1-((R)-1-(1H-Benzo[d]imidazol-2-yl)-2-(4-methoxyphenyl)ethyl)-3-((R)-1-cyclohexylethyl)urea]",1.78 µM
7,"O=C(N[C@H](Cc1ccc(C(F)(F)F)cc1)c1nc2cc(F)ccc2[nH]1)NC12CCC(O)(CC1)CC2 [Example 267, (R)-1-(1-(5-Fluoro-1H-benzo[d]imidazol-2-yl)-2-(4-(trifluoromethyl)phenyl)ethyl)-3-(4-hydroxybicyclo[2.2.2]octan-1-yl)urea]",0.014 µM
8,"COc1ccc(C[C@@H](NC(=O)N2CC3CCC2CN3C)c2nc3ccccc3[nH]2)cc1 (stereo partly drawn) [Example 168, N—((R)-1-(1H-Benzo[d]imidazol-2-yl)-2-(4-methoxyphenyl)ethyl)-5-methyl-2,5-diazabicyclo[2.2.2]octane-2-carboxamide]",0.087 µM
9,"COC(=O)N1CCC(NC(=O)N[C@H](Cc2ccc(OC)cc2)c2nc3ccccc3[nH]2)CC1 [Example 139, (R)-Methyl 4-(3-(1-(1H-benzo[d]imidazol-2-yl)-2-(4-methoxyphenyl)ethyl)ureido)piperidine-1-carboxylate]",0.414 µM
10,"COc1ccc(C[C@@H](NC(=O)Nc2cc(C3CC3)nn2C)c2nc3ccccc3[nH]2)cc1 [Example 314, (R)-1-(1-(1H-Benzo[d]imidazol-2-yl)-2-(4-methoxyphenyl)ethyl)-3-(3-cyclopropyl-1-methyl-1H-pyrazol-5-yl)urea]",0.014 µM
11,"O=C(N[C@H](Cc1ccc(Br)cc1)c1nc2ccc(Cl)cc2[nH]1)NC12CCC(O)(CC1)CC2 [Example 194, (R)-1-(2-(4-Bromophenyl)-1-(6-chloro-1H-benzo[d]imidazol-2-yl)ethyl)-3-(4-hydroxybicyclo[2.2.2]octan-1-yl)urea]",0.0019 µM
12,"COc1ccc(C[C@@H](NC(=O)NCC(c2ccccc2)N2CCOCC2)c2nc3ccccc3[nH]2)cc1 (stereo partly drawn) [Example 215, 1-((R)-1-(1H-Benzo[d]imidazol-2-yl)-2-(4-methoxyphenyl)ethyl)-3-(2-morpholino-2-phenylethyl)urea]",0.0089 µM
13,"COc1ccc(CC(NC(=O)N[C@H]2CC[C@H](O)CC2)c2nc3ccc(Br)cc3[nH]2)cc1 (relative stereo) [Example 424, 1-(1-(6-bromo-1H-benzo[d]imidazol-2-yl)-2-(4-methoxyphenyl)ethyl)-3-(trans-4-hydroxycyclohexyl)urea]",0.0008 µM
14,"COc1ccc(C[C@@H](NC(=O)NCc2nn(C)c3ccccc23)c2nc3ccccc3[nH]2)cc1 [Example 298, (R)-1-(1-(1H-Benzo[d]imidazol-2-yl)-2-(4-methoxyphenyl)ethyl)-3-((1-methyl-1H-indazol-3-yl)methyl)urea]",0.203 µM
15,"COc1ccc(CC(NC(=O)N[C@H]2CC[C@@](C)(O)CC2)c2nc3ccccc3[nH]2)cc1F (relative stereo) [Example 227, 1-(1-(1H-Benzo[d]imidazol-2-yl)-2-(3-fluoro-4-methoxyphenyl)ethyl)-3-(cis-4-hydroxy-4-methylcyclohexyl)urea]",0.097 µM
16,"COc1ccc(CC(NC(=O)Nc2cc(C)nn2C)c2nc3ccccc3[nH]2)cc1 (centres unmarked) [Example 416, 1-(1-(1H-benzo[d]imidazol-2-yl)-2-(4-methoxyphenyl)ethyl)-3-(1,3-dimethyl-1H-pyrazol-5-yl)urea]",0.089 µM

row,Compound,EC50
1,"COc1ccc(C[C@@H](NC(=O)N[C@@H](C)c2ccc(F)cc2)c2nc3ccccc3[nH]2)cc1 [Example 321, 1-((R)-1-(1H-Benzo[d]imidazol-2-yl)-2-(4-methoxyphenyl)ethyl)-3-((S)-1-(4-fluorophenyl)ethyl)urea]",0.128 µM
2,"COc1ccc(C[C@@H](NC(=O)NCc2ccc(CN(C)C)cc2)c2nc3ccccc3[nH]2)cc1 [Example 272, (R)-1-(1-(1H-Benzo[d]imidazol-2-yl)-2-(4-methoxyphenyl)ethyl)-3-(4-((dimethylamino)methyl)benzyl)urea]",0.339 µM
3,"CCOc1ccc(CC(NC(=O)N[C@H]2CC[C@H](O)CC2)c2nc3ccccc3[nH]2)cc1 (relative stereo) [Example 77, 1-(1-(1H-Benzo[d]imidazol-2-yl)-2-(4-ethoxyphenyl)ethyl)-3-(trans-4-hydroxycyclohexyl)urea]",0.203 µM
4,"COc1ccc(C[C@@H](NC(=O)NCCc2cccc(OC)c2)c2nc3ccccc3[nH]2)cc1 [Example 6, (R)-1-(1-(1H-Benzo[d]imidazol-2-yl)-2-(4-methoxyphenyl)ethyl)-3-(3-methoxyphenethyl)urea]",0.378 µM
5,"COc1ccc(CC(NC(=O)N[C@H]2CC[C@](C)(O)CC2)c2nc3ccccc3[nH]2)c(F)c1F (mixture of isomers) [Example 252, 1-(1-(1H-Benzo[d]imidazol-2-yl)-2-(2,3-difluoro-4-methoxyphenyl)ethyl)-3-(trans-4-hydroxy-4-methylcyclohexyl)urea]",0.017 µM
6,"COc1ccc(CCNC(=O)NC(Cc2ccc(OC)cc2)c2nc3ccccc3[nH]2)cc1 (centres unmarked) [Example 53, 1-(1-(1H-Benzo[d]imidazol-2-yl)-2-(4-methoxyphenyl)ethyl)-3-(4-methoxyphenethyl)urea]",0.539 µM
7,"COc1ccc(C[C@@H](NC(=O)N[C@H]2CC[C@H](O)CC2)c2nc3cc([N+](=O)[O-])ccc3[nH]2)cc1 [Example 148, 1-(trans-4-Hydroxycyclohexyl)-3-((R)-2-(4-methoxyphenyl)-1-(5-nitro-1H-benzo[d]imidazol-2-yl)ethyl)urea]",0.018 µM
8,"O=C(NC(Cc1ccc(Br)cc1F)c1nc2ccccc2[nH]1)N[C@H]1CC[C@H](O)CC1 (relative stereo) [Example 188, 1-(1-(1H-Benzo[d]imidazol-2-yl)-2-(4-bromo-2-fluorophenyl)ethyl)-3-(trans-4-hydroxycyclohexyl)urea]",0.0037 µM
9,"COc1ccc(C[C@@H](NC(=O)NC2(C)COC2)c2nc3ccccc3[nH]2)cc1 [Example 109, (R)-1-(1-(1H-Benzo[d]imidazol-2-yl)-2-(4-methoxyphenyl)ethyl)-3-(3-methyloxetan-3-yl)urea]",0.634 µM
10,"O=C(NC(Cc1ccc(Br)cc1)c1nc2cc(Cl)ccc2[nH]1)N[C@H]1CC[C@H](O)CC1 (relative stereo) [Example 81, 1-(2-(4-Bromophenyl)-1-(5-chloro-1H-benzo[d]imidazol-2-yl)ethyl)-3-(trans-4-hydroxycyclohexyl)urea]",0.0014 µM
11,"COc1ccc(CC(NC(=O)NCc2ccccc2Cl)c2nc3ccccc3[nH]2)cc1 (centres unmarked) [Example 45, 1-(1-(1H-Benzo[d]imidazol-2-yl)-2-(4-methoxyphenyl)ethyl)-3-(2-chlorobenzyl)urea]",0.76 µM
12,"COc1ccc(C[C@@H](NC(=O)N[C@@H]2CCN(C(C)=O)C2)c2nc3ccccc3[nH]2)cc1 [Example 142, 1-((R)-1-(1H-Benzo[d]imidazol-2-yl)-2-(4-methoxyphenyl)ethyl)-3-((R)-1-acetylpyrrolidin-3-yl)urea]",0.306 µM
13,"COc1ccc(C[C@@H](NC(=O)NCCc2cc(C)ccc2C)c2nc3ccccc3[nH]2)cc1 [Example 306, (R)-1-(1-(1H-Benzo[d]imidazol-2-yl)-2-(4-methoxyphenyl)ethyl)-3-(2,5-dimethylphenethyl)urea]",0.06 µM
14,"CC1(O)CCC(NC(=O)NC(Cc2ccc(Br)c(F)c2)c2nc3ccccc3[nH]2)CC1 (single isomer, unassigned; ent-2) [Example 317, 1-(1-(1H-Benzo[d]imidazol-2-yl)-2-(4-bromo-3-fluorophenyl)ethyl)-3-(trans-4-hydroxy-4-methylcyclohexyl)urea (ent-2)]",0.0057 µM
15,"COc1ccc(CC(NC(=O)NCCc2ccccc2OC)c2nc3ccccc3[nH]2)cc1 (centres unmarked) [Example 40, 1-(1-(1H-Benzo[d]imidazol-2-yl)-2-(4-methoxyphenyl)ethyl)-3-(2-methoxyphenethyl)urea]",0.062 µM
16,"COc1ccc(C[C@@H](NC(=O)NCc2ncccc2C)c2nc3ccccc3[nH]2)cc1 [Example 287, (R)-1-(1-(1H-Benzo[d]imidazol-2-yl)-2-(4-methoxyphenyl)ethyl)-3-((3-methylpyridin-2-yl)methyl)urea]",0.092 µM
